Experimental data taken from PubChem BioAssay (NCI).
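48-hour exposure; five concentrations; linearly interpolated endpoints. TGI: total growth inhibition.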

Tests used:
Test in all cases: growth of human tumour cells (NCI), 48 h
OVCAR-4 ovarian = test system: OVCAR-4 ovarian
OVCAR-8 ovarian = test system: OVCAR-8 ovarian
OVCAR-5 ovarian = test system: OVCAR-5 ovarian
T-47D breast = test system: T-47D breast
DU-145 prostate = test system: DU-145 prostate
COLO 205 colon = test system: COLO 205 colon
MDA-MB-435 = test system: MDA-MB-435
EKVX NSCLC = test system: EKVX NSCLC
MDA-N = test system: MDA-N
PC-3 prostate = test system: PC-3 prostate
HT29 colon = test system: HT29 colon
SF-539 CNS = test system: SF-539 CNS
CCRF-CEM leukemia = test system: CCRF-CEM leukemia
LOX IMVI melanoma = test system: LOX IMVI melanoma
MALME-3M melanoma = test system: MALME-3M melanoma
ACHN renal = test system: ACHN renal
UO-31 renal = test system: UO-31 renal
NCI-H460 lung = test system: NCI-H460 lung
SK-OV-3 ovarian = test system: SK-OV-3 ovarian
SF-268 CNS = test system: SF-268 CNS
HCT-116 colon = test system: HCT-116 colon
K-562 leukemia = test system: K-562 leukemia
UACC-257 melanoma = test system: UACC-257 melanoma
HCT-15 colon = test system: HCT-15 colon
NCI-H23 lung = test system: NCI-H23 lung
NCI-H226 lung = test system: NCI-H226 lung
MDA-MB-231 breast = test system: MDA-MB-231 breast
HCC-2998 colon = test system: HCC-2998 colon
NCI/ADR-RES ovarian = test system: NCI/ADR-RES ovarian
KM12 colon = test system: KM12 colon
A498 renal = test system: A498 renal
MCF7 breast = test system: MCF7 breast
SW-620 colon = test system: SW-620 colon
SK-MEL-28 melanoma = test system: SK-MEL-28 melanoma
RXF 393 renal = test system: RXF 393 renal
A549 NSCLC = test system: A549 NSCLC
U251 CNS = test system: U251 CNS
UACC-62 melanoma = test system: UACC-62 melanoma
RPMI-8226 leukemia = test system: RPMI-8226 leukemia
SF-295 CNS = test system: SF-295 CNS
HL-60(TB) leukemia = test system: HL-60(TB) leukemia
NCI-H522 lung = test system: NCI-H522 lung
SNB-19 CNS = test system: SNB-19 CNS
OVCAR-3 ovarian = test system: OVCAR-3 ovarian
HOP-62 NSCLC = test system: HOP-62 NSCLC
TK-10 renal = test system: TK-10 renal
SK-MEL-5 melanoma = test system: SK-MEL-5 melanoma
HS 578T breast = test system: HS 578T breast
IGROV1 ovarian = test system: IGROV1 ovarian
CAKI-1 renal = test system: CAKI-1 renal
BT-549 breast = test system: BT-549 breast
M14 melanoma = test system: M14 melanoma
786-0 renal = test system: 786-0 renal
SN12C renal = test system: SN12C renal
MOLT-4 leukemia = test system: MOLT-4 leukemia

SMILES: CCn1c(CCCc2nc3c([nH]2)c(=O)n(C)c(=O)n3C)nc2c1c(=O)n(C)c(=O)n2C
- TGI (OVCAR-4 ovarian): > 100 µM
- TGI (OVCAR-8 ovarian): > 100 µM
- TGI (OVCAR-5 ovarian): > 100 µM
- TGI (T-47D breast): > 100 µM
- TGI (DU-145 prostate): > 100 µM
- TGI (COLO 205 colon): 27 µM
- TGI (MDA-MB-435): > 100 µM
- TGI (EKVX NSCLC): > 100 µM
- TGI (MDA-N): > 100 µM
- TGI (PC-3 prostate): > 100 µM
- TGI (HT29 colon): > 100 µM
- TGI (SF-539 CNS): 30.5 µM
- TGI (CCRF-CEM leukemia): > 100 µM
- TGI (LOX IMVI melanoma): > 100 µM
- TGI (MALME-3M melanoma): > 100 µM
- TGI (ACHN renal): > 100 µM
- TGI (UO-31 renal): > 100 µM
- TGI (NCI-H460 lung): > 100 µM
- TGI (SK-OV-3 ovarian): > 100 µM
- TGI (SF-268 CNS): > 100 µM
- TGI (HCT-116 colon): > 100 µM
- TGI (K-562 leukemia): > 100 µM
- TGI (UACC-257 melanoma): > 100 µM
- TGI (HCT-15 colon): > 100 µM
- TGI (NCI-H23 lung): > 100 µM
- TGI (NCI-H226 lung): 30.6 µM
- TGI (MDA-MB-231 breast): > 100 µM
- TGI (HCC-2998 colon): > 100 µM
- TGI (NCI/ADR-RES ovarian): > 100 µM
- TGI (KM12 colon): > 100 µM
- TGI (A498 renal): > 100 µM
- TGI (MCF7 breast): > 100 µM
- TGI (SW-620 colon): > 100 µM
- TGI (SK-MEL-28 melanoma): > 100 µM
- TGI (RXF 393 renal): > 100 µM
- TGI (A549 NSCLC): > 100 µM
- TGI (U251 CNS): > 100 µM
- TGI (UACC-62 melanoma): > 100 µM
- TGI (RPMI-8226 leukemia): > 100 µM
- TGI (SF-295 CNS): > 100 µM
- TGI (HL-60(TB) leukemia): > 100 µM
- TGI (NCI-H522 lung): > 100 µM
- TGI (SNB-19 CNS): > 100 µM
- TGI (OVCAR-3 ovarian): > 100 µM
- TGI (HOP-62 NSCLC): > 100 µM
- TGI (TK-10 renal): > 100 µM
- TGI (SK-MEL-5 melanoma): 27.8 µM
- TGI (HS 578T breast): > 100 µM
- TGI (IGROV1 ovarian): > 100 µM
- TGI (CAKI-1 renal): > 100 µM
- TGI (BT-549 breast): > 100 µM
- TGI (M14 melanoma): > 100 µM
- TGI (786-0 renal): > 100 µM
- TGI (SN12C renal): > 100 µM
- TGI (MOLT-4 leukemia): > 100 µM
